In patent US5314890A, “1-7 disubstituted xanthine derivatives having antiasthmatic activity, their physiologically acceptable salts, pharmaceutical compositions containing them and process for their preparation” (priority 1990, dated 1994):
pIC50: −log10 of the molar value. Like-named read-outs stand apart in the source and are kept apart here.

Legend:
[1] = tested on: anaesthetized guinea pigs (sensitized); assay: Antagonism toward ovoalbumin induced bronchomotor effects in anaesthetized guinea pigs; format: in vivo, guinea pig; details: 140 μmol/Kg i.v., 15 min before OA aerosol 0.5% for 20 s; for % inhibition of OA-induced bronchospasm referred to control group: N.A. = not active; for changes in pulmonary insufflation pressure after OA aerosol: controls 1.80 ± 0.15 KPa
Protocol: Antagonism toward ovoalbumin induced bronchomotor effects in anaesthetized guinea pigs.
Anaesthetized guinea pigs (sensitized with 100 mg/Kg s.c. plus 100 mg/Kg i.p. of ovoalbumin (OA) 14 days before tests) were used as described previously although bronchospasm was produced by OA intratracheal aerosol administration (0.5% for 20 s.).
Antibronchospastic activity was expressed as changes in pulmonary insufflation pressure (KPa) after OA aerosol administration and as inhibition percentage referred to control group.

male Swiss mice [2] = assay: Pentylentetrazol-induced lethality in mice; format: in vivo; details: 0.55 mmol/kg orally, 1 h before PTZ (60-75 mg/kg i.p.); controls 10%
Protocol: The drugs were administered orally (0.55 mmol/kg) in a volume of 20 ml/kg 1 h before PTZ. CNS excitation was valued as increase of PTZ mortality.

male Swiss mice [3] = assay: Chlordiazepoxide-induced sleep in mice; format: in vivo, mouse; details: 0.55 mmol/kg orally, 1 h before CDO (100 mg/kg i.p.); controls 27.1 ± 3.5 min; * p < 0.01
Protocol: Starved (20 h) male Swiss mice (20 g body weight) were injected with chlordiazepoxide (CDO) (100 mg/kg i.p.) and the duration of the induced sleep assessed. Sleeping time was defined as the time elapsing from the loss to the recovery of the righting reflex. The drugs were administered orally (0.55 mmol/kg) in a volume of 20 ml/kg 1 h before CDO. CNS excitation was valued as decrease in sleeping time (Table 4).

[4] = Acute oral toxicity in mice; details: mouse, in vivo, starved male Swiss mice, observed 10 days, Litchfield and Wilcoxon
Protocol: Starved (18 h) male Swiss mice (20 g weight) received drugs orally (0.2 ml/10 g weight).
Death and symptoms were evaluated LD50 was obtained according to Litchfield and Wilcoxon (J. Pharm. Expt. Ther. 96, 99, 1949).

[5] = tested on: isolated guinea pig bronchi; assay: "In vitro" antibronchospastic activity in isolated guinea pig bronchi; format: cell-based; details: Cavia porcellus
Protocol: A steady tonic bronchomotor response was produced by administration of carbachol (0.3 μM) or capsaicin (0.3 μM, in presence of thiorphan 10 μM) on which a concentration-response curve with the various xanthine derivatives was carried out.

[6] = tested on: anaesthetized guinea pigs; assay: Antagonism toward acetylcholine- and capsaicin-induced bronchomotor effects in anaesthetized guinea-pig; format: in vivo; details: 70 μmol/kg i.v., mean ± s.e.m.; for inhibition percentage of acetylcholine (Ach) induced bronchospasm: 15 min before acetylcholine 25 μg/kg; for inhibition percentage of capsaicin (Caps) induced bronchospasm: 15 min before capsaicin 2.5 μg/kg
Protocol: Anaesthetized guinea-pig were used D-Tubocurarine (3 mg/kg i.v.) was administered, and a mechanic ventilation (60 strokes/min) with a pump through a tracheal cannula was carried out Drugs were administered intravenously in a volume less than 0.5 ml/kg through a jugular cannula. Acetylcholine (25 μg/kg) or capsaicin (2.5 μg/kg) administration evoked a powerful and transient increase in tracheal insufflation pressure which was repeatable after 30 min. […] Antibronchospastic activity was expressed as inhibition percentage referred to the first increase of tracheal insufflation pressure.

sensitized guinea-pigs = assay: Antagonism toward antigen-induced bronchospasm in sensitized guinea-pigs; format: in vivo, guinea pig; details: 0.55 mmol/kg orally, 1 hour before 0.5% ovalbumin aerosol; mean ± s.e.m.; control 8.4 ± 0.8; * p < 0.05
Protocol: Guinea-pigs (sensitized with 100 mg/kg s.c. plus 100 mg/kg i.p. of ovalbumin 14 days before) (Herxheimer and Streseman-Arch. Int. Pharmacodyn. Ther. 125, 265; 1960) were challenged by an aerosol of 0.5% ovalbumin, for a period of 10 sec. in a closed chamber.
In a first set of experiments, number of aerosol-induced bronchospasms was registered in control conditions or 1 hr after the oral administration of testing substances.

[7] = Antibronchospastic / bronchodilatory activity, general statement (laboratory tests by the Applicant)
[8] = Goodman and Gilman, 1985; cited from earlier work
[9] = isolated guinea pig bronchi, capsaicin 0.3 μM with thiorphan 10 μM, 95% C.L. in brackets, read-out: IC50, capsaicin-induced tone
[10] = isolated guinea pig bronchi, carbachol 0.3 μM, 95% C.L. in brackets, read-out: IC50, carbachol-induced tone

Row | Structure (SMILES) | % inhibition of OA-induced bronchospasm referred to control group [1] [%] | changes in pulmonary insufflation pressure after OA aerosol [1] [KPa] | PTZ test mortality rate (male Swiss mice [2]) [%] | CDO test sleeping-time (male Swiss mice [3]) [min] | LD50 at 240 h [4] [mg/kg] | pIC50 [5, 9] | pIC50 [5, 10] | inhibition percentage of acetylcholine (Ach) induced bronchospasm [6] [%] | inhibition percentage of capsaicin (Caps) induced bronchospasm [6] [%] | number of bronchospasms recorded in 5 minutes (bronchospasm/min) (sensitized guinea-pigs) | pIC50 ([5]; read-out: IC50, capsaicin-induced tone) | pIC50 ([5]; read-out: IC50, carbachol-induced tone) | antibronchospastic / bronchodilatory activity (in words) [7] | side effects (in words) [8]
1 | Cn1c(=O)[nH]c2ncn(CC(C)(C)O)c2c1=O [1-methyl-7-(2-methyl-2-hydroxy-propyl)-xanthine] | 36 | 1.15 ± 0.15 | 0 | 64.2 ± 12.8 |  |  |  |  |  |  |  |  |  | 
2 | CC(C)Cn1cnc2[nH]c(=O)n(C)c(=O)c21 [1-methyl-7-isobutyl-xanthine] | 86 | 0.25 ± 0.08 | 20 | 26.1 ± 3.3 | 303 | 4.68 | 4.51 | 54 ± 5 | 52 ± 3 | 5.0 ± 1.1 |  |  |  | 
3 | Cn1c(=O)[nH]c2ncn(C)c2c1=O [Paraxanthine, 1,7-dimethyl-xanthine] |  |  | 82 | 2.3 ± 1.5 |  |  |  |  |  |  | 4.09 | 3.87 | does not show any significant antibronchospastic activity | 
4 | Cn1c(=O)c2[nH]cnc2n(C)c1=O [Theophylline, 1,3-dimethyl-xanthine, reference compound] |  |  |  | 7.8 ± 2.2 |  | 4.40 | 4.04 | 51 ± 8 | 51 ± 7 | 4.6 ± 1.2 |  |  |  | side effects on the cardiovascular system and on the central nervous system
